Laboratory results taken from US20250255293A1, “TISSUE DECONTAMINATION AND PRESERVATION SYSTEM” (priority 2024, published 2025).
Read-outs that look alike come from different tables or passages of the source.

Assays:
[1] = system: contaminated human femoral osteochondral allografts; conditions: 0.002% chlorhexidine gluconate, pulse lavage (1 L) / immediate intraoperative treatment, cited from earlier work
[2] = system: clinically relevant bacterial species; assay: Quantitative microbial culture of osteoarticular fracture fragments (Example 5); assay type: cell-based, Roseomonas sp, Methylobacterium sp; conditions: for decontamination of osteoarticular tissues based on quantitative microbial tissue cultures (in words): days 7 and 14 of MOPS storage
Experimental: (§1) Skeletally mature purpose-bred research hounds (n=16) were humanely euthanized for purposes unrelated to the present study. Immediately following euthanasia, each dog was positioned in sternal recumbency with one forelimb extended and secured in a custom-made positioning apparatus. Fur was not clipped and no aseptic preparation or decontamination techniques were performed. Using a validated technique, a penetrating captive bolt stunner pistol (CASH Special, FRONTMATEC, Birmingham, United Kingdom) with a 1.25 grain cartridge was centered on the cranial (anterior) aspect of the distal humerus, immediately proximal to the elbow joint and with firm pressure against the secured elbow, the pistol was discharged, creating type 3 open distal humeral fractures. After the fractures were induced and radiographs obtained, the skin and soft tissues were aseptically removed. For each elbow (n=32), osteoarticular tissues were obtained from the distal humerus, proximal radius and proximal ulna such that 96 contaminated, devascularized, osteoarticular fracture fragments were randomly allocated to undergo treatment using one of the following protocols for comparison: 1)⋅Betadine (n=42): bulb irrigation using 1 L of 0.9% saline, followed by immersion in 10% povidone-iodine solution for 20 min, followed by bulb irrigation using 1 L of 0.9% saline; 2)⋅Chlorhexidine (n=42): bulb irrigation using 1 L of 0.9% saline, followed by immersion in 0.002% chlorhexidine gluconate solution immersion for 20 min, followed by bulb irrigation using 1 L of 0.9% saline; and 3)⋅Injured Control (n=12): no decontamination treatment. Each fragment was then immediately placed in 200 ml of Missouri Osteochondral Preservation System (MOPS®) solution in individual sterile closed containers, transported to the on-site laboratory and placed in a dedicated storage cabinet in standard room temperature and humidity conditions for 7 or 14 days.
Microbial Cultures. At days 7 (n=21) or 14 (n=21) of storage, osteoarticular fracture fragments were also collected and processed for quantitative microbial culture. […] Microorganism cultures were quantified using Colony-Forming Unit (CFU) counts per milliliter of broth. […] Post incubation, the number of colonies formed on each plate was counted. The number of CFUs per milliliter (CFU/ml) was calculated using the formula: CFU/ml=(number of colonies×dilution factor)/volume inoculated. […]
(§2) Statistical Analysis. All data were analyzed using statistical software R Studio, version 4.3.1 (Posit Software, Boston, MA, USA). Descriptive statistics for VCD, % VCD and CFU were calculated to report means, standard deviations, ranges and percentages. […]

[3] = system: chondrocytes of osteoarticular fracture fragments; assay: Viable chondrocyte density / % VCD, live-dead assay (Example 5); assay type: cell-based; conditions: for % VCD (percentage of mean VCD of healthy day-0 samples): 20 min immersion (10% povidone-iodine or 0.002% chlorhexidine gluconate)
Experimental: as §1
Viable Chondrocyte Density. At days 7 (n=21) or 14 (n=21) of storage, osteoarticular tissues were collected and processed for assessment of viable chondrocyte density (VCD). VCD was assessed using a live-dead assay involving calcein AM (live stain) and ethidium homodimer (dead stain). Briefly, tissues were sagittally sectioned using a Buchler Isomet low speed saw (Lake Bluff, IL, USA) to produce representative 1 mm-thick sections from each. Sections were placed in 6-well plates containing calcein AM (1 μg/ml) solution and ethidium homodimer (1 μM) in Phosphate Buffered Saline (PBS). The plates were incubated for 30 minutes at 37° C. After incubation, the stain was removed, the samples rinsed in PBS and tissues were mounted to the bottom of the plate using a 4% agarose solution. Fluorescent microscopy was used to obtain two images per section, which were analyzed to quantify tissue viability based on VCD. The VCD was determined by counting the number of viable cells in each image and dividing this by the area of the tissue in the image (#of viable cells/area of cartilage tissue mm^2). The percentage of viable chondrocyte density (% VCD) for each fracture fragment was calculated based on the mean VCD of healthy day-0 samples using the formula: (fractured VCD/control VCD)×100.
as §2

Staphylococcus aureus = conditions: 20-minute immersion in 2% chlorhexidine, grossly contaminated bone segments; cited from earlier work
cells in bone = conditions: decontamination with 2% chlorhexidine gluconate; cited from earlier work
[4] = listed as chlorhexidine gluconate

## [H]/N=C(\N/C(=N/[H])NCCCCCCNC(=N)NC(=N)Nc1ccc(Cl)cc1)Nc1ccc(Cl)cc1 [Chlorhexidine, chlorhexidine gluconate]
[1]; listed as Chlorhexidine Gluconate
  decontamination of contaminated osteochondral allografts: effective decontamination
[1]; [4]
  decontamination of contaminated osteochondral allografts: effective for complete decontamination
[2]; days 7 and 14
  CFUs for clinically relevant bacterial species: No CFUs
[2]
  decontamination of osteoarticular tissues based on quantitative microbial tissue cultures (in words): effective at decontamination
[2]; listed as chlorhexidine
  decontamination of osteoarticular tissues based on quantitative microbial tissue cultures (in words): effectively decontaminated
[2]; [4]
  decontamination of osteoarticular tissues based on quantitative microbial tissue cultures (in words): effective for decontaminating
[3]; 0.002% chlorhexidine immersion 20 min, shelf-stable storage in MOPS
  maintenance of minimum essential chondrocyte viability (in words): maintaining minimum essential chondrocyte viability for up to 14 days
[3]; Day 7 of MOPS storage
  % VCD (percentage of mean VCD of healthy day-0 samples): 75.7 ± 24.2%
[3]; Day 14 of MOPS storage
  % VCD (percentage of mean VCD of healthy day-0 samples): 70.1 ± 24.1%
[3]; days 7 and 14
  % VCD compared with other groups (in words): significantly (p<0.001) higher than for the Betadine and Injured Control groups
[3]; days 7 and 14 of MOPS storage
  mean % VCD versus minimum essential threshold: > 70%
Staphylococcus aureus
  removal of Staphylococcus aureus burden: > 99%
Cells in bone
  cell viability in bone: complete loss of cell viability
